Source: US9637490B2, “Antifungal 5,6-dihydro-4-[(difluoroethyl)phenyl]-4H-pyrrolo[1,2-α][1,4]benzodiazepine and 4-(difluoroethyl)phenyl-6H-pyrrolo[1,2-α][1,4]benzodiazepine derivatives” (Janssen Pharmaceutica NV, priority 2010, dated 2017)

Key:
[1] = system: Microsporum canis (strain B68128); test: Test D.4.1: activity against M. canis in guinea-pigs after oral treatment for 7 consecutive days; type: in vivo; design: key to semi-quantitative lesion score (mean): lesion score 0–3.5 by severity and size of lesion; details: oral 10 mg/kg once daily for 7 days
Protocol: The animals used in the tests described below were female Guinea pigs (Duncan-Hartley, Charles River, 200 g). These animals were kept in groups of 2 or 3 in cages of 56×33×20 cm^3. Food pellets (Carfil Quality) and water were available ad libitum in addition to a small daily amount of hay. Standard husbandry conditions were adopted: room temperature: 22° C., humidity level: 60% and a day-night cycle of 12 h.
For the preparation of inoculums, Microsporum canis (strain B68128) was grown on Sabouraud Dextrose Agar (SDA) plates for at least one week (7-10 days) before infection (27° C.). On the day of infection, spores were harvested by adding 4-5 ml sterile water on the plate and suspending the infectious material with a bend Pasteur pipette. From the recollected fluid, 10 μl was added to a KOVA counting chamber for determination of the number of spores in 1 square (average of several squares). If needed, additional dilutions (10× or 100×) were prepared. The average number of spores in one square×dilution×90.000=cfu/ml. An inoculum of 1×10^7 cfu/ml was prepared in a honey-water mixture (50%-50%).
In the tests described below, semi-quantitative lesion scores were given based on different clinical parameters. Scores between 0 and 3.5 were assigned based on the severity and size of the lesion. The criteria are listed in detail in Table 6.
The dorsum of the guinea pigs was shaved and further depilated for 3 minutes with Veet® creme before scarification with a steel brush. An inoculum of 10^6 cfu in 150 μl (75 mQ+75 μl honey) was applied to the wound using a micropipette with disposable tips. The animal was kept immobilized until the inoculum had completely dried. […]
vehicle: methocel 0.5%, Tween 80® (polysorbate 80), demineralised water reference compound: itraconazole at 6.25 mg/ml test compounds: prepared at 25 mg/ml, subsequently further diluted
Oral treatment (gavage 0.16 ml/100 g once daily) was started about 2 hours before infection and continued once daily for 7 consecutive days. The animals were weighed after 3 days of treatment to adjust for the dose.
Developments of lesions were evaluated following the semi-quantitative lesion scoring system (see Table 6) on days 3, 5, 7, 10, 12, 14, 17 and 20. The results are show in Table 7 (“DPI” means days post infection). Reported values in Table 7 are mean values.

[2] = system: Trichophyton rubrum B68183; test: Antifungal activity in vitro (resazurin susceptibility screen), Inf. C; type: cell-based; details: 27 °C, 7 days, resa time 24 hours; for IC50: Trichophyton rubrum, B68183, Trichophyton rubrum B68183; for pIC50 Inf. C: Trichophyton rubrum B68183
Protocol: (§1) The standard susceptibility screen was performed in 96-well plates (U-bottom, Greiner Bio-One). Serial dilutions (2-fold or 4-fold) of 20 mM compound stock solutions were made in 100% DMSO, followed by an intermediate dilution step in water. These serial dilutions (10 μl) were then spotted onto test-plates that could be stored in the dark at 4° C. for a maximum period of 2 weeks. An adequate broad dose-range was included with 64 μM as the highest in-test concentration. The culture medium RPMI-1640 was supplemented with L-glutamine, 2% glucose and buffered with 3-(N-morpholino)-propanesulfonic acid (MOPS) at pH 7.0±0.1. The different fungal species/isolates (Table 3a) were cryopreserved and 1/1000 diluted in medium just prior to use. A standard inoculum of 200 μl containing 10^3 colony-forming unit (cfu) was then added to each well. A positive control (100% growth=fungal culture without antifungal) and a negative control (0% growth=RPMI-MOPS medium) were included on each plate. Optimal incubation time and temperature were dependent on the fungal species and vary from 24 h for yeasts (37° C.) to one week or more for dermatophytes (27° C.). Inhibition of fungal growth was measured after adding 10 μl of 0.005% (w/v) resazurin (Sigma Aldrich) to each well, based on the principle that living cells convert the non-fluorescent blue resazurin into the pink and fluorescent resorufin, allowing fluorimetric reading (λhd ex 550 nm and μem 590 nm) after an additional incubation period (‘resa’ time mentioned in Table 3a). [table]

[3] = system: Mucor circinelloides IHEM21105; test: Antifungal activity in vitro (resazurin susceptibility screen), Inf. L; type: cell-based; details: 27 °C, 48 hours, resa time 17 hours
Protocol: as §1

[4] = system: Scedosporium prolificans IHEM21157; test: Antifungal activity in vitro (resazurin susceptibility screen), Inf. I; type: cell-based; details: Lomentospora prolificans, 37 °C, 48 hours, resa time 17 hours
Protocol: as §1

[5] = system: Aspergillus fumigatus B42928; test: Antifungal activity in vitro (resazurin susceptibility screen), Inf. E; type: cell-based; details: 27 °C, 48 hours, resa time 17 hours; for IC50: Aspergillus fumigatus, B42928, Aspergillus fumigatus B42928; for pIC50 Inf. E: Aspergillus fumigatus B42928
Protocol: as §1

[6] = system: Candida parapsilosis B66126; test: Antifungal activity in vitro (resazurin susceptibility screen), Inf. D; type: cell-based; details: 37 °C, 24 hours, resa time 4 hours; for IC50: Lodderomyces parapsilosis, B66126, Candida parapsilosis B66126; for pIC50 Inf. D: Candida parapsilosis B66126
Protocol: as §1

[7] = system: Sporothrix schenkii B62482; test: Antifungal activity in vitro (resazurin susceptibility screen), Inf. A; type: cell-based; details: 27 °C, 4 days, resa time 24 hours; for IC50: Sporothrix, B62482, Sporothrix schenkii B62482; for pIC50 Inf. A: Sporothrix schenkii B62482
Protocol: as §1

Rhizopus oryzae IHEM5223 = test: Antifungal activity in vitro (resazurin susceptibility screen), Inf. J; type: cell-based; details: 37 °C, 24 hours, resa time 6 hours; for IC50: Rhizopus arrhizus
Protocol: as §1

[8] = system: Cryptococcus neoformans B66663; test: Antifungal activity in vitro (resazurin susceptibility screen), Inf. F; type: cell-based; details: 37 °C, 24 hours, resa time 4 hours; for IC50: Cryptococcus neoformans, B66663, Cryptococcus neoformans B66663; for pIC50 Inf. F: Cryptococcus neoformans B66663
Protocol: as §1

[9] = system: Rhizomucor miehei IHEM13391; test: Antifungal activity in vitro (resazurin susceptibility screen), Inf. K; type: cell-based; details: 37 °C, 48 hours, resa time 17 hours; for IC50: Rhizomucor miehei, IHEM13391, Rhizomucor miehei IHEM13391
Protocol: as §1

[10] = system: Scedosporium apiospermum IHEM3817; test: Antifungal activity in vitro (resazurin susceptibility screen), Inf. H; type: cell-based; details: 37 °C, 48 hours, resa time 17 hours; for IC50: Scedosporium apiospermum, IHEM3817, Scedosporium apiospermum IHEM3817
Protocol: as §1

[11] = system: Trichophyton mentagrophytes B70554; test: Antifungal activity in vitro (resazurin susceptibility screen), Inf. G; type: cell-based; details: 27 °C, 7 days, resa time 24 hours; for IC50: Trichophyton mentagrophytes, B70554, Trichophyton mentagrophytes B70554; for pIC50 Inf. G: Trichophyton mentagrophytes B70554
Protocol: as §1

Microsporum canis B68128 = test: Antifungal activity in vitro (resazurin susceptibility screen), Inf. B; type: cell-based; details: 27 °C, 9 days, resa time 24 hours; for IC50: Microsporum canis, B68128, Microsporum canis B68128; for pIC50 Inf. B: Microsporum canis B68128
Protocol: as §1

Compound	IC50 [2] [nM]	IC50 [5] [nM]	IC50 [6] [µM]	IC50 [7] [µM]	IC50 [8] [µM]	IC50 [11] [nM]	IC50 (Microsporum canis B68128) [nM]	pIC50 Inf. C [2]	pIC50 Inf. E [5]	pIC50 Inf. D [6]	pIC50 Inf. A [7]	pIC50 Inf. F [8]	pIC50 Inf. G [11]	pIC50 Inf. B (Microsporum canis B68128)	other results
CCC(C)n1ncn(-c2ccc(N3CCN(c4ccc(OCC5COC(Cn6cncn6)(c6ccc(Cl)cc6Cl)O5)cc4)CC3)cc2)c1=O (stereo not shown) [Itraconazole, reference compound]															semi-quantitative lesion score (mean) ([1]; 3 DPI): 0; semi-quantitative lesion score (mean) ([1]; 5 DPI): 0; semi-quantitative lesion score (mean) ([1]; 7 DPI): 0; semi-quantitative lesion score (mean) ([1]; 10 DPI): 0; semi-quantitative lesion score (mean) ([1]; 12 DPI): 0; semi-quantitative lesion score (mean) ([1]; 14 DPI): 0; semi-quantitative lesion score (mean) ([1]; 17 DPI): 0; semi-quantitative lesion score (mean) ([1]; 20 DPI): 0
CC(F)(F)c1cc(C2=NCc3c(F)cccc3-n3cccc32)ccc1F [Compound 20, 4-[3-(1,1-difluoroethyl)-4-fluorophenyl]-7-fluoro-6H-pyrrolo[1,2-a][1,4]benzodiazepine]	145	112	12.9	> 64.6	> 64.6	794	513								IC50 [3]: > 64.6 µM; IC50 [4]: 158 nM; IC50 (Rhizopus oryzae IHEM5223): > 64.6 µM; IC50 [9]: 26.9 µM; IC50 [10]: 575 nM
CC(F)(F)c1ccc(C2NCc3cc(Cl)cc(Cl)c3-n3cccc32)cc1.Cl (stereo not shown) [Compound 5, 8,10-dichloro-4-[4-(1,1-difluoroethyl)phenyl]-5,6-dihydro-4H-pyrrolo[1,2-a][1,4]-benzodiazepine.HCl]								4.22	<4.19	<4.19	<4.19	4.46	<4.19	<4.19	
CC(F)(F)c1ccc(C2NCc3c(ccc(Cl)c3Cl)-n3cccc32)cc1.Cl (stereo not shown) [Compound 7, 7,8-dichloro-4-[4-(1,1-difluoroethyl)phenyl]-5,6-dihydro-4H-pyrrolo[1,2-a][1,4]-benzodiazepine.HCl]								5.40	<4.19	<4.19	<4.19	<4.19	<4.19	5.40	
CC(F)(F)c1cc(C2=NCc3cccc(Cl)c3-n3cccc32)ccc1F [Compound 35, 10-chloro-4-[3-(1,1-difluoroethyl)-4-fluorophenyl]-6H-pyrrolo[1,2-a][1,4]-benzodiazepine]	302	1450	14.8	4.27	0.525	1580	525								
CC(F)(F)c1ccc(C2=NCc3c(F)cc(F)cc3-n3cccc32)cc1 [Compound 18, 4-[4-(1,1-difluoroethyl)phenyl]-7,9-difluoro-6H-pyrrolo[1,2-a][1,4]benzodiazepine]	148	501	2.34	8.13	1.62	1100	2140								IC50 [3]: > 64.6 µM; IC50 [4]: 794 nM; IC50 (Rhizopus oryzae IHEM5223): > 64.6 µM; IC50 [9]: 50.1 µM; IC50 [10]: > 64600 nM
CC(F)(F)c1ccc(C2=NCc3c(ccc(Cl)c3Cl)-n3cccc32)cc1 [Compound 10, 7,8-dichloro-4-[4-(1,1-difluoroethyl)phenyl]-6H-pyrrolo[1,2-a][1,4]benzodiazepine]	> 64600	> 64600	> 64.6	> 64.6	> 64.6	> 64600	> 64600								
CC(F)(F)c1ccc(C2NCc3c(Cl)cccc3-n3cccc32)cc1.Cl (stereo not shown) [Compound 1, 7-chloro-4-[4-(1,1-difluoroethyl)phenyl]-5,6-dihydro-4H-pyrrolo[1,2-a][1,4]-benzodiazepine.HCl]								6.91	6.72	5.70	4.68	5.30	6.89	6.45	IC50 [3]: > 64.6 µM; pIC50 Inf. J (Rhizopus oryzae IHEM5223): <4.19; pIC50 Inf. K ([9]; Rhizomucor miehei IHEM13391): <4.19; pIC50 Inf. H ([10]; Scedosporium apiospermum IHEM3817): <4.19
CC(F)(F)c1ccc(C2NCc3c(Cl)cc(Cl)cc3-n3cccc32)cc1.Cl (stereo not shown) [Compound 13, 7,9-dichloro-4-[4-(1,1-difluoroethyl)phenyl]-5,6-dihydro-4H-pyrrolo[1,2-a][1,4]-benzodiazepine.HCl]								5.70	4.81	<4.19	<4.19	<4.19	5.14	4.23	
CC(F)(F)c1ccc([C@H]2NCc3c(Cl)cccc3-n3cccc32)cc1 (single isomer, unassigned) [Compound 3]															IC50 [4]: 708 nM; IC50 (Rhizopus oryzae IHEM5223): > 64.6 µM
CC(F)(F)c1cc(C2=NCc3ccc(Cl)cc3-n3cccc32)ccc1F [Compound 34, 9-chloro-4-[3-(1,1-difluoroethyl)-4-fluorophenyl]-6H-pyrrolo[1,2-a][1,4]benzodiazepine]	7940	7940	2.95	7.94	5.75	8130	8130								
CC(F)(F)c1ccc(C2NCc3c(Cl)ccc(Cl)c3-n3cccc32)cc1.Cl (stereo not shown) [Compound 11, 7,10-dichloro-4-[4-(1,1-difluoroethyl)phenyl]-5,6-dihydro-4H-pyrrolo[1,2-a][1,4]-benzodiazepine.HCl]								4.86	<4.19	<4.19	<4.19	<4.19	<4.19	<4.19	
